What was measured:
[1] = biological target: T1, PxCDA2 (Podosphaera xanthii, UniProt A0A6S4IDJ3); assay: fluorescamine assay, colloidal chitin substrate; format: biochemical
T1 construct: recombinant, N-terminal 6-His tag, expressed in E. coli
From the text: fluorescamine assay, colloidal chitin substrate on PxCDA2

[2] = biological target: T2, PxCDA1 (Podosphaera xanthii, UniProt A0A6S4IFB1); assay: fluorescamine assay, colloidal chitin substrate; format: biochemical
T2 construct: recombinant, N-terminal 6-His tag, expressed in E. coli
T2 sequence (A0A6S4IFB1 23-324 limits assumed): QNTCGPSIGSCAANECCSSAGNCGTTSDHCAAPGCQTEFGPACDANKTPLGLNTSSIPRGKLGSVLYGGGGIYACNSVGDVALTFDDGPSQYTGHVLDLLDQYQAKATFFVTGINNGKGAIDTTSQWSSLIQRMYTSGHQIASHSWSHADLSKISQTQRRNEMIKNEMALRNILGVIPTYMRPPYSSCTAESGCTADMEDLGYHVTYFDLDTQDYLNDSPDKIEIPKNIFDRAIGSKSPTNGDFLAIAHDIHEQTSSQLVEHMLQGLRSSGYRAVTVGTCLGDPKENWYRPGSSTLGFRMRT
From the text: fluorescamine assay, colloidal chitin substrate on PxCDA1

T1 sequence (A0A6S4IDJ3 23-314 limits assumed): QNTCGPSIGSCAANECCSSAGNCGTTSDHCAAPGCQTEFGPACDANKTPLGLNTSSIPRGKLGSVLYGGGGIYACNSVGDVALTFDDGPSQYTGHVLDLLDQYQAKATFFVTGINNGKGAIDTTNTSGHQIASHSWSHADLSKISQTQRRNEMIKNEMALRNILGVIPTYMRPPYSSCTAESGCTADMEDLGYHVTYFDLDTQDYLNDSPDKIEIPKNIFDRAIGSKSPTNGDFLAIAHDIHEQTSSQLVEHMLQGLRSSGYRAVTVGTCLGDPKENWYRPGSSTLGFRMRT

Q: For `C=CCN1C(=O)NC(=O)/C(=C/c2ccc(OCC(=O)O)c(OC)c2)C1=O` [VS#2-3], which inhibition at 100 µM [1] is on record?
A: 74.5%

Q: What about the inhibition at 100 µM [2] of the same compound?
A: 86.8%

Q: Which results are given for `Cn1c(=O)n(CC(=O)O)c(=O)c2c1nc1n2CCS1` [VS#2-2]?
A: inhibition at 100 µM [1]: 93%; inhibition at 100 µM [2]: 79.4%

Q: Which results are given for `CN1C(=O)C(=Cc2cccc(OCC(=O)O)c2)C(=O)N(C)C1=O` [VS#2-1]?
A: inhibition at 100 µM [1]: 74.5%; inhibition at 100 µM [2]: 86.9%

From PMC10389753, “Rational Design of Chitin Deacetylase Inhibitors for Sustainable Agricultural Use Based on Molecular Topology” (Journal of Agricultural and Food Chemistry, 2022)
